Data on 31 molecules can be found in patent publication US9879036B2, “Mitochondrial aldehyde dehydrogenase-2 binding compounds and methods of use thereof” (Aviv Therapeutics, Inc., priority 2014, dated 2018).

This assay concerns the target T1, ALDH2 (Homo sapiens, UniProt P05091).
T1 construct: His-tag (N); made in house; host or cells: E. coli BL21
T1 sequence (P05091 18-517): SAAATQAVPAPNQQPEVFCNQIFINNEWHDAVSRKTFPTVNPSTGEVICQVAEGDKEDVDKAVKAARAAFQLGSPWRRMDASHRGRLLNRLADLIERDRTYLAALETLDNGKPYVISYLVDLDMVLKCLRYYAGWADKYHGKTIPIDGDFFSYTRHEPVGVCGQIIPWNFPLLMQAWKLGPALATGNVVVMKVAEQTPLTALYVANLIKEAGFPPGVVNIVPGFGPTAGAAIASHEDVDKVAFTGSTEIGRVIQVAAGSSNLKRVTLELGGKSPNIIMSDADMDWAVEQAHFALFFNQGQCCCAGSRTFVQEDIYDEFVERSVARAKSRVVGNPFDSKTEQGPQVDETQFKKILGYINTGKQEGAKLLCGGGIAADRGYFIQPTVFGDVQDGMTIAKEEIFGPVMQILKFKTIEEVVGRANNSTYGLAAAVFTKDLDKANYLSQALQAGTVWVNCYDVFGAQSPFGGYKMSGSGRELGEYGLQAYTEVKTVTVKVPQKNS
The experiment in a line: ALDH2 activity with 20 μM of the compound (Table 3). The format is biochemical. To be noted: 20 μM compound. On the procedure: ALDH2 catalyzes the oxidative reaction of substrate acetaldehyde to acetic acid using NAD^+ as a cofactor. Enzymatic activity, or catalytic rate, of aldehyde dehydrogenase (ALDH2) are measured spectrophotometrically at UV wavelength λ340 nm by the accumulation of reduced product NADH derived from NAD^+. Absorbance at λ340 nm is quantitatively proportional to the amount of NADH being produced over time (6.22 O.D. unit=1 mmol of NADH, measured in a 1-cm width standard cuvette). This method is well-established in the literature [e.g. Rex et al., Alcohol Clin. Exp. Res. 9, 147 (1985)].
ALDH2 catalyzes the oxidative reaction of substrate acetaldehyde to acetic acid using NAD^+ as a cofactor. Enzymatic activity, or catalytic rate, of aldehyde dehydrogenase (ALDH2) can be measured spectrophotometrically at UV wavelength λ340 nm by the accumulation of reduced product NADH derived from NAD^+. Absorbance at λ340 nm is quantitatively proportional to the amount of NADH being produced over time (6.22 O.D. unit=1 mmol of NADH, measured in a 1-cm width standard cuvette). This method is well-established in the literature [e.g. Rex et al., Alcohol Clin. Exp. Res. 9, 147 (1985)].
ALDH2 catalyzes the oxidative reaction of substrate acetaldehyde to acetic acid using NAD^+ as a cofactor. Enzymatic activity, or catalytic rate, of aldehyde dehydrogenase (ALDH2) can be measured spectrophotometrically at UV wavelength λ340 nm by the accumulation of reduced product NADH derived from NAD^+. Because compounds of formula (I) are considered to be agonists or “activators” of ALDH2 the enzymatic activity measured will exceed 100% of the baseline enzymatic activity of the enzyme in its normal activation state. As the concentration of the compounds of formula (I) decreases from 20 micromolar to 0.16 micromolar in the presence of ALDH, a decrease in the activation of enzymatic activity is observed for the wild-type ALDH2*1/*1 and the heterozygous form ALDH2*1/*2.
On to `COc1ccc(CNC(=O)c2cc(-c3n[nH]cc3CO)cnc2OCC2CC2)cc1F` [AC40], for which the activity at 20 µM was in the range of 100 to 150%.
Consider `COc1ccc(CNC(=O)c2cc(-c3ccccc3OC)cnc2OCC2CC2)cc1F` [AC74], for which the activity at 20 µM is 100 to 150%.
`CCOc1ccc(-c2ncccc2CO)cc1C(=O)NCc1ccc(OC)c(F)c1` [AC98]: the activity at 20 µM lay within 150 to 250%.
The value for `COc1ccc(CNC(=O)c2cc(-c3cn(C)nc3CO)ccc2OCC2CC2)cc1F` [AC39] was 150 to 250%.
As for `COc1ccc(CNC(=O)c2cc(-c3ccccc3CN(C)C)cnc2OCC2CC2)cc1F` [AC76], the activity at 20 µM was 100 to 150%.
To `CCCOc1ccc(-c2cnccc2CO)cc1C(=O)NCc1ccc(OC)c(F)c1` [AC99] belongs 150 to 250%; to `O=C(NCc1cc(Cl)c2c(c1)OCO2)c1cc(-c2ncccc2CO)ccc1OCC1CC1` [AC45], 100 to 150%; to `COc1ccc(CNC(=O)c2cc(-c3cnccc3CO)ccc2OC)cc1F` [AC95], 150 to 250%.
Turning to `O=C(NCc1ccc(Cl)cc1)c1cc(-c2ccccc2CO)cnc1OCC1CC1` [AC52], the activity at 20 µM lay in the range of 100 to 150%.
The value for `CCNCc1ccccc1-c1ccc(OCC2CC2)c(C(=O)NCc2ccc(OC)c(F)c2)c1` [AC84] was 150 to 250%; that for `COc1ccc(CNC(=O)c2cc(-c3ccccc3C(=O)O)ccc2OCC2CC2)cc1F` [AC85] was 100 to 150%; that for `COc1ccc(CNC(=O)c2cc(-c3ccccc3O)ccc2OCC2CC2)cc1F` [AC82] was 100 to 150%.
To `COc1ccc(CNC(=O)c2cc(-c3ncccc3CO)ccc2OCC2CCCCC2)cc1F` [AC163] belongs 150 to 250%; to `COc1ccc(CNC(=O)c2cc(-c3cnccc3CO)ccc2OC2CC2)cc1F` [AC103], 150 to 250%; to `COc1ccc(CNC(=O)c2cc(-c3cnccc3CO)ccc2OC2CCCCC2)cc1F` [AC109], > 250%.
The value for `COc1ccc(CNC(=O)c2cc(-c3ncccc3CO)ccc2OC2CCCCC2)cc1F` [AC110] was > 250%.
`CNCc1ccccc1-c1ccc(OCC2CC2)c(C(=O)NCc2ccc(OC)c(F)c2)c1` [AC83]: the activity at 20 µM is 150 to 250%.
The value for `COc1ccc(CNC(=O)c2cc(-c3ncccc3CO)ccc2OC2CCCCCC2)cc1F` [AC164] was > 250%.
To `CC(C)(C)c1ccc(CNC(=O)c2cc(-c3ccccc3CO)cnc2OCC2CC2)cc1` [AC50] belongs 100 to 150%; to `COc1ccc(CNC(=O)c2cc(-c3ccccc3C(=O)N(C)C)cnc2OCC2CC2)cc1F` [AC79], 100 to 150%.
To `COc1ccc(CNC(=O)c2cc(-c3ccccc3CCO)cnc2OCC2CC2)cc1F` [AC92] belongs 100 to 150%; to `[2H]C(O)c1cccnc1-c1ccc(OCC2CC2)c(C(=O)NCc2ccc(OC([2H])([2H])[2H])c(F)c2)c1` (stereo not shown) [AC157], > 250%.
`COc1ccc(CNC(=O)c2cc(-c3cnccc3CO)ccc2OC2CCC2)cc1F` [AC105]: the activity at 20 µM was 150 to 250%.
To `Cc1ccc(CNC(=O)c2cc(-c3ccccc3CO)cnc2OCC2CC2)cc1` [AC48] belongs 100 to 150%; to `COc1ccc(CNC(=O)c2cc(-c3ccccc3OC)ccc2OCC2CC2)cc1F` [AC78], 100 to 150%.
The value for `COc1ccc(CNC(=O)c2cc(-c3cnccc3CO)ccc2OCC(C)C)cc1F` [AC111] was > 250%; that for `COc1ccc(CNC(=O)c2cc(-c3ccccc3/C=C/C(C)=O)cnc2OCC2CC2)cc1F` [AC77] was 100 to 150%.
The value for `[2H]C([2H])([2H])Oc1ccc(CNC(=O)c2cc(-c3ncccc3CO)ccc2OCC2CC2)cc1F` [AC153] was > 250%; that for `COc1ccc(CNC(=O)c2cc(-c3ncccc3CO)ccc2OC2CCCCCCC2)cc1F` [AC165] was 150 to 250%; that for `O=C(NCc1ccc(F)cc1)c1cc(-c2ccccc2CO)cnc1OCC1CC1` [AC53] was 100 to 150%.
In the case of `COc1ccc(CNC(=O)c2cc(-c3ncccc3CO)ccc2OC2CCC2)cc1F` [AC106], the activity at 20 µM was in the range of 150 to 250%.
